Data published in patent US20120202892A1, “Cannabinoid-Containing Compositions and Methods for Their Use” (University of Kentucky Research Foundation, priority 2008, published 2012).
Where “and” joins values, the source holds several entries; their conditions need not be identical. Equal entries are not always repeated. Entries after “also recorded” stand apart in the source; their conditions may differ. Where two headings read alike, the source gives them in different places. Marks after values point to notes of the source that are not given here.

What was measured:
[1] = tested on: CFA-induced knee joint inflammation; assay: Knee joint circumference in CFA mono-arthritic rats; type: in vivo, Sprague-Dawley rats
[2] = tested on: CFA-induced knee joint inflammation; assay: Knee joint temperature in CFA mono-arthritic rats; type: in vivo, Sprague-Dawley rats
[3] = tested on: CFA-induced mono-arthritis pain; assay: Pain-related posture (spontaneous pain rating score 0-5); type: in vivo, Sprague-Dawley rats; conditions: after CFA, before CBD gel
Excerpt: The abnormal posture of the affected hind limb of each animal was assigned a single score using a subjective pain-related behavioral scale (spontaneous pain rating score 0-5), i.e. 0—normal; 1—curling of the toes, 2—eversion of the paw; 3—partial weight bearing; 4—non-weight bearing and guarding; and 5—avoidance of any contact with the hindlimb (Sluka et al. (1994) Neuroreport 5:109-112).
Baseline parameters (body weight, knee joint temperature, and knee joint circumference) were obtained before the knee injection of rats with CFA. PWL test and exploratory activity testing were also conducted prior to CFA injection. Rats were anesthetized with a short term anesthetic and the left knee joint, cavity was injected with CFA for induction of mono-arthritis. On day 3, the back of each animal was shaved. […] Rats received daily treatments for four consecutive days of either vehicle gel, or CBD gel. Gel was applied to the skin in a templated region on the dorsal surface of the rat and rubbed into the skin for 30 sec to ensure complete coverage. The nitrile template was used to ensure specific area reproducibility. […] Exploratory activity was monitored prior to initial gel application and on the third day post gel application (after 6 h). […] Blood samples were obtained for CBD plasma quantification, and tissues (knee joints, dorsal root ganglia, spinal cord, brain) were collected after perfusion. […]

[4] = tested on: CFA-induced mono-arthritis, secondary thermal hyperalgesia; assay: Secondary thermal hyperalgesia, paw withdrawal latency (PWL) test; type: in vivo, Sprague-Dawley rats; conditions: for Paw withdrawal latency (PWL), own baseline score: baseline before CFA and CBD
Procedure: Secondary thermal hyperalgesia was assessed with the paw withdrawal latency (PWL) test (Hargreaves et al. (1988) Pain 32: 77-88). PWLs were measured in response to a radiant heat source shone on one hind paw of the animals from beneath a glass top table. A shortened PWL response in animals with knee joint inflammation was indicative of secondary thermal hyperalgesia. Animals were placed in separate plastic cubicles (4×4×10 in) on a glass top table (2 mm thickness of glass) and allowed to adapt to their new environment for 20-30 min before testing. A small movable metal box that focused a high-intensity light beam through an aperture (0.5 cm×0.5 cm) was attached to an on/off switch and a digital timer. The light beam was applied to the plantar surface of the hind paw through the glass until the rat lifted its paw. At that time, the light is switched off and the number of seconds on the digital timer recorded as the PWL (sec). The maximal cut off time for the paw-withdrawal reflex was set to 15 sec (55° C.). […] Both hind paws were tested independently for 5 trials per side with 5-minute intervals between trials. A mean of the 5 trials was calculated for each animal. The PWL tests were performed before knee joint injection as a baseline and 5 times after the CFA injection beginning on day 3 (days 3-7). The examiner was blind from the treatment group of animals.
(§1) Baseline parameters (body weight, knee joint temperature, and knee joint circumference) were obtained before the knee injection of rats with CFA. PWL test and exploratory activity testing were also conducted prior to CFA injection. Rats were anesthetized with a short term anesthetic and the left knee joint, cavity was injected with CFA for induction of mono-arthritis. On day 3, the back of each animal was shaved. […] Rats received daily treatments for four consecutive days of either vehicle gel, or CBD gel. Gel was applied to the skin in a templated region on the dorsal surface of the rat and rubbed into the skin for 30 sec to ensure complete coverage. The nitrile template was used to ensure specific area reproducibility. The PWL test was conducted 4 h after gel application. Exploratory activity was monitored prior to initial gel application and on the third day post gel application (after 6 h). On the final day of gel application after the body and knee joint parameters were obtained and PWL test was conducted, rats were cuthanized by pentobarbital overdose. Blood samples were obtained for CBD plasma quantification, and tissues (knee joints, dorsal root ganglia, spinal cord, brain) were collected after perfusion.
Half of the treated rats were injected with the CFA in the knee joint. Within each group of rats, half received vehicle gel without CBD and the other half received the gel CBD. Four different doses were tested in the rats, 0.6 mg/d, 3.1 mg/d, 6.2 mg/d, or 62.3 mg/d. […] A two-fold lower dose and a ten-fold lower/higher dose (3.1 mg/d, 0.6 mg/d, and 62.3 mg/d) were also investigated. Area of application, amount of gel, and/or concentration of gel was adjusted to achieve the desired doses.

normal (non-CFA) rats = assay: Open field exploratory behavioral activity; type: in vivo, Sprague-Dawley rats
Procedure: Exploratory behavioral activity of the rats was monitored using the Flexfield Animal Activity System (San Diego Instruments; San Diego, Calif.) with a Photobeam Activity System software coupled to a computer according to previously published methods by Zhang et al., (2004) Pharmacol Biochem Behav 77: 145-153. Briefly, six main parameters were recorded: rearing events and rearing time, active time, and resting time, total activity (i.e. number of photobeams disturbed in the x-y-z planes while the rat was moving around in the box or involved in stationary movement such as grooming), and distance traveled. Activity testing was conducted in an isolated, temperature controlled area at similar times daily in order to provide consistent results.
as §1

[5] = Plasma CBD concentration after topical gel application (LC/MS); type: in vivo, Sprague-Dawley rats; conditions: rats
Procedure: as §1
50 μL aliquot of plasma collected from cannabidiol dosed rats was added to a siliconized microcentrifuge tube containing 500 μL of 1:1 ACN:ethyl acetate. The plasma/ACN:ethyl acetate sample was vortexed for 30 sec and centrifuged at 10,000×g for 20 min. The supernatant was removed and placed into a clean silanized culture tube and evaporated under nitrogen in a 37° C. water bath. The dried sample was reconstituted with 100 μL of ACN and vortexed for 30 sec, then sonicated for 5 min. […] Standards were prepared by spiking blank plasma samples with respective standard concentrations and extracting the standards similarly to the collected plasma samples.
The LC/MS system used to analyze samples was comprised of a Waters Alliance 2695 pump and autosampler, a Micromass™ ZQ detector, and 996 photodiode array detector with MassLynx™ software (Waters Corp., Milford, Mass.). A Symmetry™ C18 column (150×2.1 mm, 5 μm) with a Sentry Symmetry™ guard column (10×2.1 mm, 3.5 μm) was used with the LC/MS system. The ZQ detector was used with an electrospray ionization (ESI) probe set for single ion monitoring (SIM) for cannabidiol quantification. Analysis was performed in negative mode for m/z 313 [CBD-H]^− (dwell time: 30 sec). Capillary and cone voltage were set at […] and 40 V, respectively. Source block and desolvation temperatures were set at 120° C. and 250° C., respectively. Nitrogen produced from the Nitroflow Lab (Parker Hannifin Corp; Cleveland, Ohio) was used as nebulization and drying gas flow rates of 50 and 450 L/h, respectively. […]

CB2 receptor = CB2 receptor (Homo sapiens, UniProt P34972); conditions: cited from earlier work
CB2 receptor, sequence (P34972 whole entry): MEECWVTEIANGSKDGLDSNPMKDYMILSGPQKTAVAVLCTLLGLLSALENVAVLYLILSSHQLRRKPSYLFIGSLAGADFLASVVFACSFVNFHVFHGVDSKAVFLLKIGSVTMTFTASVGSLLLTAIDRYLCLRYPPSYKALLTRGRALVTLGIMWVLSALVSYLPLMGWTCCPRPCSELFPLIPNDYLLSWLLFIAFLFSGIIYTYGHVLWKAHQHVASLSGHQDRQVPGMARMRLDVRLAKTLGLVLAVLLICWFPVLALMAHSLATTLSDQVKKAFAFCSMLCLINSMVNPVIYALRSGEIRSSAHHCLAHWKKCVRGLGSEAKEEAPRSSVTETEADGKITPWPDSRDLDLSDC

[6] = tested on: collagen-induced arthritis; conditions: mice, cited from earlier work
[7] = tested on: CFA intraplantar injection; conditions: rats, 20 mg/kg oral, 7 consecutive days; cited from earlier work
[8] = tested on: carrageenan-induced paw edema; conditions: cited from earlier work
[9] = in vivo; cited from earlier work
[10] = 0.6 mg/d group, after CFA, before CBD gel
[11] = 3.1 mg/d group, after CFA, before CBD gel
[12] = 3.1 mg/d transdermal CBD gel, Post-CBD, day 4
[13] = 6.2 mg/d group, after CFA, before CBD gel
[14] = 62.3 mg/d group, after CFA, before CBD gel
[15] = CFA + CBD group, baseline before CFA and before CBD

## C=C(C)C1CCC(C)=CC1c1c(O)cc(CCCCC)cc1O (stereo not drawn) [CBD, 2-[3-methyl-6-(1-methylethenyl)-2-cyclohexen-1-yl]-5-pentyl-1,3-benzenedi-ol]
[1]; [10]
  Knee joint circumference [mean ± SD]: 7.5 ± 0.3^b cm
[1]; 0.6 mg/d transdermal CBD gel, Post-CBD, four consecutive days (day 4)
  Knee joint circumference [mean ± SD]: 7.0 ± 0.3^b cm
[1]; [11]
  Knee joint circumference [mean ± SD]: 7.4 ± 0.4^b cm
[1]; [12]
  Knee joint circumference [mean ± SD]: 7.1 ± 0.3^b cm
[1]; [13]
  Knee joint circumference [mean ± SD]: 7.2 ± 0.3^b cm
[1]; 6.2 mg/d transdermal CBD gel, Post-CBD, day 4, p<0.05 vs vehicle gel
  Knee joint circumference [mean ± SD]: 6.6±0.2 cm and 6.6 ± 0.2^b* cm
[1]; [14]
  Knee joint circumference [mean ± SD]: 7.2 ± 0.0^a cm
[1]; 62.3 mg/d transdermal CBD gel, Post-CBD, day 4, p<0.05 vs vehicle gel
  Knee joint circumference [mean ± SD]: 6.6±0.1 cm and 6.6 ± 0.1^a* cm
[1]; [15]
  Knee joint circumference [mean ± SD]: 5.7±0.2 cm and 5.7 ± 0.2^c cm
[1]; transdermal gel, no further improvement with 62.3 mg/d
  Optimal treatment dose for knee inflammation: 6.2 mg/day
[2]; [10]
  Knee joint temperature [mean ± SD]: 31.7 ± 1.7^b ° C.
[2]; 0.6 mg/d transdermal CBD gel, Post-CBD, day 4
  Knee joint temperature [mean ± SD]: 31.2 ± 0.7^b ° C.
[2]; [11]
  Knee joint temperature [mean ± SD]: 30.8 ± 0.9^b ° C.
[2]; [12]
  Knee joint temperature [mean ± SD]: 30.6 ± 0.6^b ° C.
[2]; [13]
  Knee joint temperature [mean ± SD]: 32.1 ± 1.8^b ° C.
[2]; 6.2 mg/d transdermal CBD gel, Post-CBD, day 4
  Knee joint temperature [mean ± SD]: 31.7 ± 2.1^b ° C.
[2]; [14]
  Knee joint temperature [mean ± SD]: 34.1 ± 0.8^a ° C.
[2]; 62.3 mg/d transdermal CBD gel, Post-CBD, day 4
  Knee joint temperature [mean ± SD]: 30.2 ± 0.9^a ° C.
[2]; CBD gel doses vs vehicle gel, p>0.05
  Difference in knee joint temperature among the treatment groups: No knee joint temperature differences; also recorded: no significant differences
[2]; [15]
  Knee joint temperature [mean ± SD]: 33.4 ± 0.2^a ° C.
[3]; 0.6 mg/d group
  Spontaneous pain rating scores [mean ± SD]: 4.0 ± 0.0^b
[3]; 3.1 mg/d group
  Spontaneous pain rating scores [mean ± SD]: 4.0 ± 0.0^b
[4]; 6.2 mg/d group
  Paw withdrawal latency (PWL), own baseline score: 10.9 ± 0.3 s
[4]; 62.3 mg/d group
  Paw withdrawal latency (PWL), own baseline score: 9.3 ± 0.3 s
[4]; CFA rats, 0.6 mg/d CBD gel, day 2 of application, 4 h after application
  Paw withdrawal latency (PWL): 7.8 ± 0.5 s
[4]; CFA rats, 0.6 mg/d and 3.1 mg/d CBD, day 4
  Improvement of PWL scores: did not have improved PWL scores
[4]; CFA rats, 3.1 mg/d CBD gel, day 2 of application
  Paw withdrawal latency (PWL): 7.6 ± 0.8 s
[4]; CFA rats, 6.2 mg/d CBD gel, day 2 of application, p<0.05 vs vehicle gel
  Paw withdrawal latency (PWL): 9.2 ± 0.7 s
[4]; CFA rats, 6.2 mg/d CBD gel, day 4
  Paw withdrawal latency (PWL): 9.2 ± 0.3 s
[4]; CFA rats, 6.2 mg/d, 4 h (d 1) post CBD dosing, p<0.05
  Change in PWL vs CFA rats receiving vehicle gel: improvement
[4]; CFA rats, 62.3 mg/d CBD gel, day 2 of application, p<0.05 vs vehicle gel
  Paw withdrawal latency (PWL): 9.1 ± 0.2 s
[4]; CFA rats, 62.3 mg/d CBD gel, day 4
  Paw withdrawal latency (PWL): 9.3 ± 0.2 s
[4]; normal controls, 6.2 mg/d CBD gel, day 4
  Paw withdrawal latency (PWL): 10.6 ± 0.3 s
[4]; normal rats, 0.6 mg/d CBD gel, day 2
  Paw withdrawal latency (PWL): 9.9 ± 0.2 s
[4]; normal rats, 3.1 mg/d CBD gel, day 2
  Paw withdrawal latency (PWL): 9.9 ± 0.3 s
[4]; normal rats, 6.2 mg/d CBD gel, day 2
  Paw withdrawal latency (PWL): 10.1 ± 0.9 s
[4]; normal rats, any CBD dose (0.6, 3.1, 6.2 mg/d)
  Effect on PWL in normal rats: not affected; also recorded: no effect
Normal (non-CFA) rats; 0.6 mg/d CBD gel, post-dose, p<0.05 vs pre-dose
  Distance traveled: 1757.1±299.2 cm
Normal (non-CFA) rats; 0.6 mg/d group, pre-dose
  Distance traveled: 2245.5±367.4 cm
Normal (non-CFA) rats; 3.1 mg/d group, pre-dose
  Rearing events: 284.0±31.1
  Rearing time: 189.1±20.7
Normal (non-CFA) rats; among dose groups and pre- vs post-dose, p>0.05, exception distance traveled at 0.6 mg/d
  Exploratory activity, six parameters (rearing events, rearing time, total beams broken, distance traveled, active time, resting time): No significant (p>0.05) differences
[5]; topical gel 0.6 mg/d, four consecutive days
  Plasma CBD concentration: 3.8 ± 1.4 ng/mL
[5]; topical gel 3.1 mg/d
  Plasma CBD concentration: 17.5 ± 4.4 ng/mL
[5]; topical gel 6.2 mg/d
  Plasma CBD concentration: 33.3 ± 9.7 ng/mL
[5]; topical gel 62.3 mg/d (10% w/w gel), not in linear profile
  Plasma CBD concentration: 1,629.9±379.0 ng/mL
CB2 receptor
  Binding affinity for CB2 receptor: little binding affinity
[6]; administered systemically (ip and oral)
  Therapeutic action on established CIA: beneficial therapeutic action
[6]; i.p. (2.5, 5, 10, 20 mg/kg tested)
  Optimal dose for arthritis suppression: 5 mg/kg
[6]; oral (10, 25, 50 mg/kg tested)
  Optimal dose for arthritis suppression: 25 mg/kg
[7]
  Decrease in thermal and mechanical withdrawal latency: 50%
[8]; mice, 5 and 7.5 mg/kg oral, by 6 h
  Effect on hyperalgesia (PWL): eliminated hyperalgesia
[8]; mice, 10, 20 and 40 mg/kg oral, 3 h post carrageenan
  Effect on hyperalgesia (PWL): elimination of hyperalgesia

## CCCCCc1cc(O)c2c(c1)OC(C)(C)[C@@H]1CCC(C)=C[C@@H]21 [THC, Δ^9-tetrahydrocannabinol]
[9]
  Side effects caused: hypothermia and hypomobility
